Source: US6815183B1, “Plasmodium sp. chitinase” (The Board of Regents of the University of Texas System, priority 1999, dated 2004)
Read-outs that look alike come from different tables or passages of the source.

Key:
[1] = tested on: Endo Lys-C-treated rPgCHT1; experiment: Kinetics of Endo Lys-C-treated rPgCHT1-NT1 on 4-MU substrates (Lineweaver-Burk plot); conditions: pH 6.0
Procedure: Analysis of Chitinase Activity. Chitinase activity of both native and recombinant chitinases was assessed in three ways. […] Second, microfluorimetry (HTS7000, Perkin-Elmer, excitation 360 nm and emission 465 nm) was used to measure the hydrolysis of 4-MU GlcNAc, 4-MU GlcNAc2, 4-MU GlcNAc3, and 4-MU GlcNAc4 (Sigma) as described previously. Initial enzyme reaction rates were measured. Enzymatic activity is reported as relative fluorescence units or fold change.

[2] = target: peak 2 of chitinase activity (PgCHT2) (Plasmodium gallinaceum, UniProt A0A1J1H1G1); format: biochemical
[3] = target: peak 1 of chitinase activity (native PgCHT1) (Plasmodium gallinaceum, UniProt Q9NJX9); format: biochemical
Sequence of peak 1 of chitinase activity (native PgCHT1) (Q9NJX9 entry or part of it): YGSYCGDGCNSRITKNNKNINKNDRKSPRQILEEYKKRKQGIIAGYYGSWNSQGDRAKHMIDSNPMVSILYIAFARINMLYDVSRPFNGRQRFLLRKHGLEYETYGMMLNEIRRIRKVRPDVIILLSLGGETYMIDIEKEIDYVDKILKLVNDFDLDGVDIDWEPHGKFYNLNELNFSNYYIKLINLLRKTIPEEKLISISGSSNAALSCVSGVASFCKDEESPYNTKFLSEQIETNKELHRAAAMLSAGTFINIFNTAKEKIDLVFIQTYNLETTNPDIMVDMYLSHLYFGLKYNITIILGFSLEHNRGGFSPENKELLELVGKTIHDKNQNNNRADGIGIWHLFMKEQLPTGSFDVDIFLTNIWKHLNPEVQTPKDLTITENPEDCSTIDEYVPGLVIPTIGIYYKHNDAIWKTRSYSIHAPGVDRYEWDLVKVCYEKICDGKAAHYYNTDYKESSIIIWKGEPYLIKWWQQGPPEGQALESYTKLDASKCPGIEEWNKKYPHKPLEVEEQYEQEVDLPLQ

rPgCHT1 = rPgCHT1 (Plasmodium gallinaceum, UniProt Q9NJX9); experiment: biochemical
Sequence of rPgCHT1 (Q9NJX9 entry or part of it): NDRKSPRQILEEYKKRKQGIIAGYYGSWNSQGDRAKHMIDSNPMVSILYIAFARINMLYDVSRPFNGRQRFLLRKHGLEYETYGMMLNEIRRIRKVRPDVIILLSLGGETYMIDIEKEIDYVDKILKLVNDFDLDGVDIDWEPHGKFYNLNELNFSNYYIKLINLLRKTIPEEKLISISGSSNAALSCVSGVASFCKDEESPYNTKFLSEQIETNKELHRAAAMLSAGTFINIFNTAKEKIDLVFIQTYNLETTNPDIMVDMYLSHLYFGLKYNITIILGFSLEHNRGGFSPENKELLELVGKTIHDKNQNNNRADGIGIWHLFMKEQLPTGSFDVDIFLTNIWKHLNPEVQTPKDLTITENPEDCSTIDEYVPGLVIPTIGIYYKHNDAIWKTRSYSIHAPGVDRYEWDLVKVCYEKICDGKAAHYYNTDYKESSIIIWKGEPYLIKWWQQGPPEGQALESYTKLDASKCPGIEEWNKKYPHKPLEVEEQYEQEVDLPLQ

Sequence of peak 2 of chitinase activity (PgCHT2) (A0A1J1H1G1 entry or part of it): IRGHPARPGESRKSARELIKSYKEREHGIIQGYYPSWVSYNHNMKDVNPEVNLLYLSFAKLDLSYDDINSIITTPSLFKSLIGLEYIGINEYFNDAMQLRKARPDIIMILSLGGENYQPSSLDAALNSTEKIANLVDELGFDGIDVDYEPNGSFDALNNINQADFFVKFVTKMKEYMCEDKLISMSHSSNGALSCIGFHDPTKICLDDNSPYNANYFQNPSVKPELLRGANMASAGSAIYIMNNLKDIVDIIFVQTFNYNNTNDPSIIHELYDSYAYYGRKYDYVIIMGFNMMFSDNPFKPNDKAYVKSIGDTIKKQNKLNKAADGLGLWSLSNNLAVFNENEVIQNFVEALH

SMILES	Km [1]	IC50 ([2]; read-out: IC50 of PgCHT2)	IC50 ([2]; read-out: IC50 value for peak 2)	IC50 [3]	IC50 (rPgCHT1)
CC(=O)N[C@H]1[C@H](Oc2ccc3c(C)cc(=O)oc3c2)O[C@H](CO)[C@@H](O[C@@H]2O[C@H](CO)[C@@H](O[C@@H]3O[C@H](CO)[C@@H](O)[C@H](O)[C@H]3NC(C)=O)[C@H](O)[C@H]2NC(C)=O)[C@@H]1O [4-MU GlcNAc3, 4-methylumbelliferyl-N,N′,N″-β-D-triacetylchitotrioside]	140 µM				
CC(=O)N[C@H]1[C@H](O[C@H]2[C@@H](O)[C@@H](NC(C)=O)[C@H](O[C@H]3[C@H](O)[C@H]4N=C(N(C)C)O[C@H]4[C@@H]3CO)O[C@@H]2CO)O[C@H](CO)[C@@H](O)[C@H]1O [allosamidin]		0.3 µM	0.3 µM	7 µM	12 µM
